Series [1] has as its system human diffuse large cell lymphoma B lymphocytes (Pfeiffer cell). Description: Pfeiffer cell proliferation, Calcein AM staining. Type of series: cell-based. The note with it: Homo sapiens, Pfeiffer; data of 14th day; read-out: Pfeiffer Proliferation IC50 Nanomoles per Liter.
Text: The diffuse large cell lymphoma B lymphocytes (Pfeiffer cells) were collected and counted when growing well.
Series [2] addresses Mutant type EZH2(Y641F) (Homo sapiens (Human), UniProt Q15910, Y641F). Kind of series: AlphaLISA, mutant type PRC2 complex EZH2(Y641F). The class given is biochemical. The note with it: read-out: Mutant type EZH2(Y641F) IC50 Nanomoles per Liter.
In series [3] the test system is human diffuse large B-cell lymphoma cells (Karpas 422 cell). Kind of series: Karpas 422 cell proliferation, Calcein AM staining. Type of series: cell-based. To be noted: Homo sapiens, KARPAS-422; data of 14th day; read-out: Karpas422 Proliferation IC50 Nanomoles per Liter.
Series [4] addresses wild-type EZH2 (Homo sapiens (Human), UniProt Q15910). Kind of series: radiometric assay, activity to wild-type EZH2 of PRC2. To be noted: read-out: Wild-type EZH2 IC50 Nanomoles per Liter.
Experimental: 25 μL of reaction solution was transferred to a scintillation plate, which was incubated at room temperature for 1 hour (h) and washed with deionized water and 0.1% Tween 20 for three times. A PerkinElmer liquid scintillation/luminescence counter was used to read the value, and GraphPad Prism 5 was used to calculate the median inhibitory concentration (IC50) of the compounds.
In series [5] the target is Mutant type EZH2(A677G) (Homo sapiens (Human), UniProt Q15910, A677G). Kind of series: AlphaLISA, mutant type PRC2 complex EZH2(A677G). To be noted: read-out: Mutant type EZH2(A677G) IC59 Nanomoles per Liter. The class given is biochemical.
Series [6] deals with Mutant type EZH2(Y641N) (Homo sapiens (Human), UniProt Q15910, Y641N). Description: AlphaLISA, mutant type PRC2 complex EZH2(Y641N). To be noted: read-out: Mutant type EZH2(Y641N) IC50 Nanomoles per Liter. Type of series: biochemical.
Series [7] is described as follows: Pharmacokinetic experiment in rats. The class given is in vivo, SD rats. The note with it: for AUC: read-out: Area Curve (AUC, ng/mL · h). As to the method:
A certain amount of compound was weighted and dissolved in 0.1% Tween under vortex and ultrasound, and 0.5% carboxymethyl cellulose sodium (CMC-NA) solution was added to form a uniform solution.

Read-outs that look alike come from different tables or passages of the source.

Sequence of Mutant type EZH2(A677G) (Q15910 whole entry A677G): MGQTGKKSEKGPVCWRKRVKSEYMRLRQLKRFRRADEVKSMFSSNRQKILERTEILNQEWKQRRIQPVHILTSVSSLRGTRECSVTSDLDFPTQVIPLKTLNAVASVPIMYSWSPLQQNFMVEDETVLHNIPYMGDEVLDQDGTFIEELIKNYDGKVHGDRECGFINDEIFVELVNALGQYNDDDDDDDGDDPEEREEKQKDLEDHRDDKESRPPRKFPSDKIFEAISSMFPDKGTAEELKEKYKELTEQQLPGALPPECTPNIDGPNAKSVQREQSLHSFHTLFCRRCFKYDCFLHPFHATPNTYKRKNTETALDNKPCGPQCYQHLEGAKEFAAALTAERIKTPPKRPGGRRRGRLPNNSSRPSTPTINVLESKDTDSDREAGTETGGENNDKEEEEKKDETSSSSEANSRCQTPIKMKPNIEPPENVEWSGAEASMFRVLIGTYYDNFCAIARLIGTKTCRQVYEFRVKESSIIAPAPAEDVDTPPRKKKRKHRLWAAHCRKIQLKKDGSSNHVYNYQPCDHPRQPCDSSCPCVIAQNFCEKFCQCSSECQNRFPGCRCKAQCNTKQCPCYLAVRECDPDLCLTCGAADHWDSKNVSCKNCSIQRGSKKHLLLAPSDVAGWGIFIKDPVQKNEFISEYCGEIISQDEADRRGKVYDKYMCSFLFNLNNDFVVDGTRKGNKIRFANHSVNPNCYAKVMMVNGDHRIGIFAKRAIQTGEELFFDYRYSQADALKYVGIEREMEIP
Sequence of Mutant type EZH2(A677G) (O75530 whole entry partner): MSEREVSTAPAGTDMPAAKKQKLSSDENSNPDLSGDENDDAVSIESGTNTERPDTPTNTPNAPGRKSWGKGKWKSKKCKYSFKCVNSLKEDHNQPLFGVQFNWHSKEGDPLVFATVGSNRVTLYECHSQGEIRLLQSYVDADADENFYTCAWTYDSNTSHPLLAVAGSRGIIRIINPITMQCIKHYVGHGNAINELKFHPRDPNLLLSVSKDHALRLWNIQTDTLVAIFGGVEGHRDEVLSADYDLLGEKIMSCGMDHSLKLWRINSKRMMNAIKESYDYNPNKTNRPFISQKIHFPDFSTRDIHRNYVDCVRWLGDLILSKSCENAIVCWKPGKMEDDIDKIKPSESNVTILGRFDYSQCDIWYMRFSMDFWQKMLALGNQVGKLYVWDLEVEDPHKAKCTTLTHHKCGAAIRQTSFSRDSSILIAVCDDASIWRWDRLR
Sequence of Mutant type EZH2(A677G) (Q15022 whole entry partner): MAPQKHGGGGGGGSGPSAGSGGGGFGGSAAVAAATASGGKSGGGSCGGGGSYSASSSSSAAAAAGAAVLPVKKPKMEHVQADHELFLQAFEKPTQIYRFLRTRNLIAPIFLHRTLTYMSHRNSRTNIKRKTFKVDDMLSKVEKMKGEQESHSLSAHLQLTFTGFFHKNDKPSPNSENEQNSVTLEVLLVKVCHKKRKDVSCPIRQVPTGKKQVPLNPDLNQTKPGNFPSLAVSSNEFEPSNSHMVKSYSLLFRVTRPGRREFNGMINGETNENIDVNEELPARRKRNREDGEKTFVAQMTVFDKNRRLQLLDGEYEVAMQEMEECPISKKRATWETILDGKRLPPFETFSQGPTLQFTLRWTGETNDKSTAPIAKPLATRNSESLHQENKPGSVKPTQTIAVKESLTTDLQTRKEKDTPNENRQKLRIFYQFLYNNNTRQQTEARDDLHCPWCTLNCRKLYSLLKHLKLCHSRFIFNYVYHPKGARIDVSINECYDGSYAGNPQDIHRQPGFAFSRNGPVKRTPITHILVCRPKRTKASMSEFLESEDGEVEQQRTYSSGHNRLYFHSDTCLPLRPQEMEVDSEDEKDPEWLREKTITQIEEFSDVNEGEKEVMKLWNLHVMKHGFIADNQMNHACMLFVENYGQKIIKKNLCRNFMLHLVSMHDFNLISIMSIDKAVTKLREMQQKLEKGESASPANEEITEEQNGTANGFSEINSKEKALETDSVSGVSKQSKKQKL
Sequence of Mutant type EZH2(A677G) (Q09028 whole entry partner): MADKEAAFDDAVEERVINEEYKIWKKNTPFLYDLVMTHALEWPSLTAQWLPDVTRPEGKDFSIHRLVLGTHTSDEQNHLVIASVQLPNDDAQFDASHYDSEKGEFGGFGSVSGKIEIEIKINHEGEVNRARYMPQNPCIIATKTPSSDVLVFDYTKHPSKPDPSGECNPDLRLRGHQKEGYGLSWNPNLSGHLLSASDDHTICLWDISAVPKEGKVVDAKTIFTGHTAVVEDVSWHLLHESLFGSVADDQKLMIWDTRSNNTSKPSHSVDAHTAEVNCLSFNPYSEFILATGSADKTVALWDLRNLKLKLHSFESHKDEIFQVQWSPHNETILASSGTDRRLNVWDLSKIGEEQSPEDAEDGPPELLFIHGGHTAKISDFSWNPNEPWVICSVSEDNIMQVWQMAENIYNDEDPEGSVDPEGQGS
Sequence of Mutant type EZH2(A677G) (Q6ZN18 whole entry partner): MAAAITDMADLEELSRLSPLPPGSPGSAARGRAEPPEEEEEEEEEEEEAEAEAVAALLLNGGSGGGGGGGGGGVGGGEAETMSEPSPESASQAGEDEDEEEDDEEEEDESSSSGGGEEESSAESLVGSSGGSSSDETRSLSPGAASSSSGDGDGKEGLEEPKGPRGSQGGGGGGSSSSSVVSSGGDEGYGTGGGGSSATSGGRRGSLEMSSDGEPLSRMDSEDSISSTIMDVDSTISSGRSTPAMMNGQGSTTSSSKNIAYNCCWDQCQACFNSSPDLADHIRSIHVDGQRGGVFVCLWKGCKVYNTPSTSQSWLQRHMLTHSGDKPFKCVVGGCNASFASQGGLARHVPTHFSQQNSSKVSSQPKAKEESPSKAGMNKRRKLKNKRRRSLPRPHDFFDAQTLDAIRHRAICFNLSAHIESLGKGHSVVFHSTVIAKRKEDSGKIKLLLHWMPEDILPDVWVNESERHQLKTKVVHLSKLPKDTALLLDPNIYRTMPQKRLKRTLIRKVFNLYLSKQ
Sequence of Mutant type EZH2(Y641F) (Q15910 whole entry Y641F): as the sequence (Q15910 whole entry A677G) above, with Y641F, G677A counted along it
Sequence of Mutant type EZH2(Y641F) (O75530 whole entry partner): as the sequence (O75530 whole entry partner) above
Sequence of Mutant type EZH2(Y641F) (Q15022 whole entry partner): as the sequence (Q15022 whole entry partner) above
Sequence of Mutant type EZH2(Y641F) (Q09028 whole entry partner): as the sequence (Q09028 whole entry partner) above
Sequence of Mutant type EZH2(Y641F) (Q6ZN18 whole entry partner): as the sequence (Q6ZN18 whole entry partner) above
Sequence of wild-type EZH2 (Q15910 whole entry): as the sequence (Q15910 whole entry A677G) above, with G677A counted along it
Sequence of wild-type EZH2 (O75530 whole entry partner): as the sequence (O75530 whole entry partner) above
Sequence of wild-type EZH2 (Q15022 whole entry partner): as the sequence (Q15022 whole entry partner) above
Sequence of Mutant type EZH2(Y641N) (Q15910 whole entry Y641N): as the sequence (Q15910 whole entry A677G) above, with Y641N, G677A counted along it
Sequence of Mutant type EZH2(Y641N) (O75530 whole entry partner): as the sequence (O75530 whole entry partner) above
Sequence of Mutant type EZH2(Y641N) (Q15022 whole entry partner): as the sequence (Q15022 whole entry partner) above
Sequence of Mutant type EZH2(Y641N) (Q09028 whole entry partner): as the sequence (Q09028 whole entry partner) above
Sequence of Mutant type EZH2(Y641N) (Q6ZN18 whole entry partner): as the sequence (Q6ZN18 whole entry partner) above

With `CCN(c1cc(-c2ccc3c(c2)NC(=O)C32CCN(S(C)(=O)=O)CC2)cc(C(=O)NCc2c(C)cc(C)[nH]c2=O)c1C)C1CCOCC1` [Example 87, N-((4,6-dimethyl-2-oxo-1,2-dihydropyridin-3-yl)methyl)-3-(ethyl(tetrahydro-2H-pyran-4-yl)amino)-2-methyl-5-(1′-methylsulfonyl-2-oxospiro[dihydroindole-3,4′-piperidine]-6-yl)benzamide], the IC50 was 1.86 nM in series [1], 0.53 nM in series [2] and 2.34 nM in series [3].
As to `CCN(c1cc(-c2ccc3c(c2)NC(=O)C32CCOCC2)cc(C(=O)NCc2c(C)cc(C)[nH]c2=O)c1C)C1CCOCC1F` (stereo not drawn) [Example 103, N-((4,6-Dimethyl-2-oxo-1,2-dihydropyridin-3-yl)methyl)-3-(ethyl(3-fluoro-tetrahydro-2H-pyran-4-yl)amino)-2-methyl-5-(2-oxo-2′,3′,5′,6′-tetrahydrospiro[dihydroindole-3,4′-pyran]-6-yl)benzamide], the IC50 is 0.36 nM in series [1]; 0.92 nM in series [4]; 0.63 nM in series [2]; 0.53 nM in series [3]; 0.52 nM in series [5].
In the same order, the values of `CCN(c1cc(-c2ccc3c(c2)CCC2(CCOCC2)C3=O)cc(C(=O)NCc2c(C)cc(C)[nH]c2=O)c1C)C1CCOCC1` [Example 106, N-((4,6-Dimethyl-2-oxo-1,2-dihydropyridin-3-yl)methyl)-3-(ethyl(tetrahydro-2H-pyran-4-yl)amino)-2-methyl-5-(1-oxo-2′,3,3′,4,5′,6′-hexahydro-1H-spiro[naphthalene-2,4′-pyran]-6-yl)benzamide] are 3.41 nM, 0.98 nM, 0.82 nM, 3.89 nM and 0.71 nM.
Regarding `CCN(c1cc(-c2ccc3c(c2)C(=O)C2(CCN(C)CC2)C3)cc(C(=O)NCc2c(C)cc(C)[nH]c2=O)c1C)C1CCOCC1` [Example 107, N-((4,6-Dimethyl-2-oxo-1,2-dihydropyridin-3-yl)methyl)-3-(ethyl(tetrahydro-2H-pyran-4-yl)amino)-2-methyl-5-(1′-methyl-1-oxo-1,3-dihydrospiro[indene-2,4′-piperidine]-6-yl)benzamide], the IC50 in series [1] is 4.38 nM; in series [4], 1.03 nM; in series [2], 0.86 nM; in series [3], 5.76 nM; in series [5] it was 0.67 nM.
For the molecule `CCN(c1cc(-c2ccc3c(c2)NC(=O)C32CCS(=O)(=O)CC2)cc(C(=O)NCc2c(C)cc(C)[nH]c2=O)c1C)C1CCOCC1` [Example 90, N-((4,6-dimethyl-2-oxo-1,2-dihydropyridin-3-yl)methyl)-5-(1′,1′-dioxo-2-oxo-2′,3′,5′,6′-tetrahydrospiro[dihydroindole-3,4′-thiapyran]-6-yl)-3-(ethyl(tetrahydro-2H-pyran-4-yl)amino)-2-methylbenzamide], the IC50 was 2.52 nM in series [1]; 1.42 nM in series [4]; 0.73 nM in series [2]; 2.83 nM in series [3]; 0.58 nM in series [5].
For the molecule “N-((4,6-dimethyl-2-oxo-1,2-dihydropyridin-3-yl)methyl)-3-(ethyl(tetrahydro-2H-pyran-4-yl)amino)-5-(1-isopropyl-2′,3′,5′,6′-tetrahydrospiro[dihydroindole-3,4′-pyran]-6-yl)-2-methylbenzamide [Example 65]”, the IC50 in series [5] stood at 0.78 nM.
Regarding `CCN(c1cc(-c2ccc3c(c2)NC(=O)C32CCNCC2)cc(C(=O)NCc2c(C)cc(C)[nH]c2=O)c1C)C1CCNCC1` [Example 117, N-((4,6-dimethyl-2-oxo-1,2-dihydropyridin-3-yl)methyl)-3-(ethyl(piperidin-4-yl)amino)-2-methyl-5-(2-oxospiro[indole-3,4′-piperidine]-6-yl)benzamide], the IC50 in series [1] is 2.31 nM; in series [4], 1.08 nM; in series [2], 0.94 nM; in series [3], 3.57 nM; in series [5], 0.61 nM.
As to `CCN1CCC2(CC1)C(=O)Nc1cc(-c3cc(C(=O)NCc4c(C)cc(C)[nH]c4=O)c(C)c(N(CC)C4CCOCC4)c3)ccc12` [Example 85, N-((4,6-dimethyl-2-oxo-1,2-dihydropyridin-3-yl)methyl)-3-(ethyl(tetrahydro-2H-pyran-4-yl)amino)-2-methyl-5-(1′-ethyl-2-oxospiro[dihydroindole-3,4′-piperidine]-6-yl)benzamide], the IC50 was 2.42 nM in series [1]; 0.81 nM in series [4]; 0.82 nM in series [2]; 2.85 nM in series [3]; 0.38 nM in series [5].
For `CCN(c1cc(-c2cc3c(cc2F)C2(CCOCC2)CC3)cc(C(=O)NCc2c(OC)cc(C)[nH]c2=O)c1C)C1CCOCC1` [Example 17, 3-(ethyl(tetrahydro-2H-pyran-4-yl)amino)-5-(6-fluoro-2,2′,3,3′,5′,6′-hexahydrospiro[indene-1,4′-pyran]-5-yl)-N-((4-methoxy-6-methyl-2-carbonyl-1,2-dihydropyridin-3-yl)methyl)-2-methylbenzamide], the IC50 in series [6] is 0.3 nM; in series [1], 2.78 nM; in series [4] it was 1.1 nM; in series [3], 3.09 nM.
`CCN(c1cc(-c2ccc3c(c2)NC(=O)C32CCOCC2)cc(C(=O)NCc2c(C)cc(C)[nH]c2=O)c1C)C1CCSCC1` [Example 95, N-((4,6-Dimethyl-2-oxo-1,2-dihydropyridin-3-yl)methyl)-3-(ethyl(tetrahydro-2H-thiapyran-4-yl)amino)-2-methyl-5-(2-oxo-2′,3′,5′,6′-tetrahydrospiro[dihydroindole-3,4′-pyran]-6-yl)benzamide]: the IC50 is 2.35 nM in series [1]; 0.78 nM in series [4]; 0.53 nM in series [2]; 2.79 nM in series [3]; 0.48 nM in series [5].
As to `CCN(c1cc(-c2ccc3c(c2)C(=O)C2(CCOCC2)C3)cc(C(=O)NCc2c(C)cc(C)[nH]c2=O)c1C)C1CCOCC1` [Example 78, N-((4,6-dimethyl-2-oxo-1,2-dihydropyridin-3-yl)methyl)-3-(ethyl(tetrahydro-2H-pyran-4-yl)amino)-2-methyl-5-(1-oxo-1,2′,3,3′,5′,6′-hexahydrospiro[indene-2,4′-pyran]-6-yl)benzamide], the IC50 was 0.23 nM in series [6], 1.89 nM in series [1], 0.81 nM in series [4] and 2.21 nM in series [3].
As for `CCN(c1cc(-c2ccc3c(c2)NC(=O)C32CCOCC2)cc(C(=O)NCc2c(C)cc(C)[nH]c2=O)c1C)C1CCS(=O)(=O)CC1` [Example 96, N-((4,6-Dimethyl-2-oxo-1,2-dihydropyridin-3-yl)methyl)-3-((ethyl)(1,1-dioxotetrahydro-2H-thiapyran-4-yl)amino)-2-methyl-5-(2-oxo-2′,3′,5′,6′-tetrahydrospiro[dihydroindole-3,4′-pyran]-6-yl)benzamide], the IC50 was 3.63 nM in series [1]; 1.24 nM in series [4]; 0.88 nM in series [2]; 4.57 nM in series [3]; 0.57 nM in series [5]. For the same molecule, the AUC in series [7] (male, SD, rat, plasma, rats, Intravenous-Dose 4 mg/kg) stood at 990 ng·h/mL; in series [7] (male, SD, rat, plasma, rats, Oral-Dose 20 mg/kg), 1540 ng·h/mL. The half-life in series [7] (male, SD, rat, plasma; rats, Intravenous-Dose 4 mg/kg; read-out: Half life T1/2, h) (converted)) is 1.64 h. Further, the Cmax in series [7] (male, SD, rat, plasma, rats, Oral-Dose 20 mg/kg, read-out: Blood Drug level (Cmax, ng/mL)) turned out to be 436 ng/mL. Further, in series [7] (male, SD, rat, plasma, rats, oral 20 mg/kg vs intravenous 4 mg/kg, read-out: Bioavailability (P %)), the bioavailability turned out to be 31.1%.

(Values after patent US12473298B2, “Amide compounds, preparation method therefor, and use thereof in the medical field” (Shanghai Synergy Pharmaceutical Sciences Co., Ltd., priority 2019, dated 2025).)
